In patent US20260042764A1, “COMPOSITIONS AND METHODS FOR INHIBITION OF KRAS” (TheRas, Inc., priority 2022, published 2026):

What follows are molecules tested against T1, Avi-KRAS WT (1-169) GppNHp/RAF1 RBD-3xFLAG (52-151) (Homo sapiens, UniProt P01116) (assay: Raf1-KRAS WT-GppNHP disruption HTRF assay (Biological Example 1)). Settings: KRAS WT, GppNHp-loaded; class symbols.
T1 construct: Avi-KRAS WT (1-169)
T1 sequence (P01116 1-169 isoform P01116-2): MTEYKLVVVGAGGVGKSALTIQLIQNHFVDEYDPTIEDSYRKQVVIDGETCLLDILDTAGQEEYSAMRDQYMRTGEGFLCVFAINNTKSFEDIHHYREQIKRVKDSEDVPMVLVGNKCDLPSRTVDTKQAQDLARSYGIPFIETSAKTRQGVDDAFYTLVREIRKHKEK
Format: binding
In short: (§1)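 Compound disruption of KRAS-GppNHp/RAF1 RBD binding read by HTRF after two sequential 1 h room-temperature incubations (protein mix, then detection reagents), shaken at 700 rpm. Buffer Tris pH 7.5 with MgCl2, BSA, Tween and 10% DMSO; results given as percent activity relative to DMSO (100%).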
Work on `CCN(c1nc(OC[C@@]23CCCN2C[C@H](F)C3)nc2c(F)c(-c3ccc(F)c4sc(N)c(C#N)c34)c(C(F)(F)F)cc12)C1CCN(C(=O)N2C3COCC2C3)C1` (stereo partly drawn) [Compound 652] yielded an IC50 of less than 100 nM.
`CCN(c1nc(OC[C@@]23CCCN2C[C@H](F)C3)nc2c(F)c(-c3ccc(F)c4sc(N)c(C#N)c34)c(C(F)(F)F)cc12)[C@H]1CCN(C(=O)N2CC3C(C2)C3(F)F)C1` (stereo partly drawn) [Compound 657] was tested, and the IC50 was less than 100 nM.
Molecule `CC#CC(=O)N1CC[C@@H](N(C)c2nc(OC[C@@]34CCCN3C[C@H](F)C4)nc3c(F)c(-c4ccc(F)c5sc(N)c(C#N)c45)c(C(F)(F)F)cc23)[C@H]1C` [Compound 668] has an IC50 of 100 to 1000 nM.
Work on `C=C(F)C(=O)N1CC[C@@H](N(C)c2nc(OC[C@@]34CCCN3C[C@H](F)C4)nc3c(F)c(-c4ccc(F)c5sc(N)c(C#N)c45)c(C(F)(F)F)cc23)[C@H]1C` [Compound 669] yielded an IC50 of 100 to 1000 nM.
`C/C=C/C(=O)N1CC[C@@H](N(C)c2nc(OC[C@@]34CCCN3C[C@H](F)C4)nc3c(F)c(-c4ccc(F)c5sc(N)c(C#N)c45)c(C(F)(F)F)cc23)[C@H]1C` [Compound 670] showed an IC50 of 100 to 1000 nM.

The molecules below were run against T2, Avi-KRAS G12D (1-169) GppNHp/RAF1 RBD-3xFLAG (52-151) (Homo sapiens, UniProt P01116, G12D) (assay: Raf1-KRAS G12D-GppNHP disruption HTRF assay (Biological Example 1)). Settings: KRAS G12D, GppNHp-loaded; class symbols.
T2 construct: Avi-KRAS G12D (1-169)
T2 sequence (P01116 1-169 isoform P01116-2 G12D): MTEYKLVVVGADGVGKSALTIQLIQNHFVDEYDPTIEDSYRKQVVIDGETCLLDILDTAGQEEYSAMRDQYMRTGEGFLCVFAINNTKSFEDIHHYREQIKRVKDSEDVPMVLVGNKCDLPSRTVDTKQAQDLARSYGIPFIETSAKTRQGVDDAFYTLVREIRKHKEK
Format: binding
In short: as §1
`CCN(c1nc(OC[C@@]23CCCN2C[C@H](F)C3)nc2c(F)c(-c3ccc(F)c4sc(N)c(C#N)c34)c(C(F)(F)F)cc12)C1CCN(C(=O)N2C3COCC2C3)C1` (stereo partly drawn) [Compound 652] gave an IC50 of less than 100 nM.
Work on `CCN(c1nc(OC[C@@]23CCCN2C[C@H](F)C3)nc2c(F)c(-c3ccc(F)c4sc(N)c(C#N)c34)c(C(F)(F)F)cc12)[C@H]1CCN(C(=O)N2CC3C(C2)C3(F)F)C1` (stereo partly drawn) [Compound 657] yielded an IC50 of less than 100 nM.
For `CC#CC(=O)N1CC[C@@H](N(C)c2nc(OC[C@@]34CCCN3C[C@H](F)C4)nc3c(F)c(-c4ccc(F)c5sc(N)c(C#N)c45)c(C(F)(F)F)cc23)[C@H]1C` [Compound 668], the IC50 was 100 to 1000 nM.
Work on `C=C(F)C(=O)N1CC[C@@H](N(C)c2nc(OC[C@@]34CCCN3C[C@H](F)C4)nc3c(F)c(-c4ccc(F)c5sc(N)c(C#N)c45)c(C(F)(F)F)cc23)[C@H]1C` [Compound 669] yielded an IC50 of 100 to 1000 nM.
`C/C=C/C(=O)N1CC[C@@H](N(C)c2nc(OC[C@@]34CCCN3C[C@H](F)C4)nc3c(F)c(-c4ccc(F)c5sc(N)c(C#N)c45)c(C(F)(F)F)cc23)[C@H]1C` [Compound 670] gave an IC50 of 100 to 1000 nM.

Each molecule was assayed on SW620 cells (KRAS G12V) (assay: Cell-based pERK HTRF assay in SW620 cell (Biological Example 4)). Settings: Homo sapiens, SW-620, SW620 (KRAS G12V) cells, pERK HTRF; class symbols.
In short: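 SW620 seeded in RPMI/10% FBS, next day dosed 4 h (top 1 μM, half-log, 9 pts, 0.25% DMSO). Lysed, pERK by d2/Eu cryptate HTRF, 4–24 h RT, 615 nm read.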
For `CCN(c1nc(OC[C@@]23CCCN2C[C@H](F)C3)nc2c(F)c(-c3ccc(F)c4sc(N)c(C#N)c34)c(C(F)(F)F)cc12)C1CCN(C(=O)N2C3COCC2C3)C1` (stereo partly drawn) [Compound 652], the IC50 was less than 100 nM.
In the case of `CCN(c1nc(OC[C@@]23CCCN2C[C@H](F)C3)nc2c(F)c(-c3ccc(F)c4sc(N)c(C#N)c34)c(C(F)(F)F)cc12)[C@H]1CCN(C(=O)N2CC3C(C2)C3(F)F)C1` (stereo partly drawn) [Compound 657], the IC50 is reported as less than 100 nM.
`CC#CC(=O)N1CC[C@@H](N(C)c2nc(OC[C@@]34CCCN3C[C@H](F)C4)nc3c(F)c(-c4ccc(F)c5sc(N)c(C#N)c45)c(C(F)(F)F)cc23)[C@H]1C` [Compound 668] gave an IC50 of less than 100 nM.
`C=C(F)C(=O)N1CC[C@@H](N(C)c2nc(OC[C@@]34CCCN3C[C@H](F)C4)nc3c(F)c(-c4ccc(F)c5sc(N)c(C#N)c45)c(C(F)(F)F)cc23)[C@H]1C` [Compound 669] showed an IC50 of less than 100 nM.
`C/C=C/C(=O)N1CC[C@@H](N(C)c2nc(OC[C@@]34CCCN3C[C@H](F)C4)nc3c(F)c(-c4ccc(F)c5sc(N)c(C#N)c45)c(C(F)(F)F)cc23)[C@H]1C` [Compound 670] was tested, and the IC50 was less than 100 nM.

Each molecule was assayed against T3, Avi-KRAS G12V (1-169) GppNHp/RAF1 RBD-3xFLAG (52-151) (Homo sapiens, UniProt P01116, G12V) (assay: Raf1-KRAS G12V-GppNHP disruption HTRF assay (Biological Example 1)). Settings: KRAS G12V, GppNHp-loaded; class symbols.
T3 construct: Avi-KRAS G12V (1-169)
T3 sequence (P01116 1-169 isoform P01116-2 G12V): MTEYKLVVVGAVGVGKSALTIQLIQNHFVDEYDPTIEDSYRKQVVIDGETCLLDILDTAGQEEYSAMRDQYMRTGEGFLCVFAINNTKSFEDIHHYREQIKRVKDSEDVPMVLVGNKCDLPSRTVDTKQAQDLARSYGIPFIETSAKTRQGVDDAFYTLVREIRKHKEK
Format: binding
In short: as §1
Work on `CCN(c1nc(OC[C@@]23CCCN2C[C@H](F)C3)nc2c(F)c(-c3ccc(F)c4sc(N)c(C#N)c34)c(C(F)(F)F)cc12)C1CCN(C(=O)N2C3COCC2C3)C1` (stereo partly drawn) [Compound 652] yielded an IC50 of less than 100 nM.
`CCN(c1nc(OC[C@@]23CCCN2C[C@H](F)C3)nc2c(F)c(-c3ccc(F)c4sc(N)c(C#N)c34)c(C(F)(F)F)cc12)[C@H]1CCN(C(=O)N2CC3C(C2)C3(F)F)C1` (stereo partly drawn) [Compound 657] showed an IC50 of less than 100 nM.
In the case of `CC#CC(=O)N1CC[C@@H](N(C)c2nc(OC[C@@]34CCCN3C[C@H](F)C4)nc3c(F)c(-c4ccc(F)c5sc(N)c(C#N)c45)c(C(F)(F)F)cc23)[C@H]1C` [Compound 668], the IC50 is reported as 100 to 1000 nM.
`C=C(F)C(=O)N1CC[C@@H](N(C)c2nc(OC[C@@]34CCCN3C[C@H](F)C4)nc3c(F)c(-c4ccc(F)c5sc(N)c(C#N)c45)c(C(F)(F)F)cc23)[C@H]1C` [Compound 669] was tested, and the IC50 was 100 to 1000 nM.
`C/C=C/C(=O)N1CC[C@@H](N(C)c2nc(OC[C@@]34CCCN3C[C@H](F)C4)nc3c(F)c(-c4ccc(F)c5sc(N)c(C#N)c45)c(C(F)(F)F)cc23)[C@H]1C` [Compound 670] showed an IC50 of 100 to 1000 nM.

These molecules were tested on GP2d cells (KRAS G12D) (assay: Cell-based pERK HTRF assay in GP2d cell (Biological Example 2)). Settings: GP2d, GP2d (KRAS G12D) cells, pERK HTRF; class symbols.
In short: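 60 min compound, 0.25% DMSO, 9-pt half-log curve from 1 μM or 100 nM; DMEM/10% FBS.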
Molecule `CCN(c1nc(OC[C@@]23CCCN2C[C@H](F)C3)nc2c(F)c(-c3ccc(F)c4sc(N)c(C#N)c34)c(C(F)(F)F)cc12)C1CCN(C(=O)N2C3COCC2C3)C1` (stereo partly drawn) [Compound 652] has an IC50 of less than 100 nM.
Work on `CCN(c1nc(OC[C@@]23CCCN2C[C@H](F)C3)nc2c(F)c(-c3ccc(F)c4sc(N)c(C#N)c34)c(C(F)(F)F)cc12)[C@H]1CCN(C(=O)N2CC3C(C2)C3(F)F)C1` (stereo partly drawn) [Compound 657] yielded an IC50 of less than 100 nM.
With `CC#CC(=O)N1CC[C@@H](N(C)c2nc(OC[C@@]34CCCN3C[C@H](F)C4)nc3c(F)c(-c4ccc(F)c5sc(N)c(C#N)c45)c(C(F)(F)F)cc23)[C@H]1C` [Compound 668] the IC50 was less than 100 nM.
`C=C(F)C(=O)N1CC[C@@H](N(C)c2nc(OC[C@@]34CCCN3C[C@H](F)C4)nc3c(F)c(-c4ccc(F)c5sc(N)c(C#N)c45)c(C(F)(F)F)cc23)[C@H]1C` [Compound 669] was tested, and the IC50 was less than 100 nM.
For `C/C=C/C(=O)N1CC[C@@H](N(C)c2nc(OC[C@@]34CCCN3C[C@H](F)C4)nc3c(F)c(-c4ccc(F)c5sc(N)c(C#N)c45)c(C(F)(F)F)cc23)[C@H]1C` [Compound 670], the IC50 was less than 100 nM.

The molecules below were run against T4, Avi-KRAS G12R (1-169) GppNHp/RAF1 RBD-3xFLAG (52-151) (Homo sapiens, UniProt P01116, G12R) (assay: Raf1-KRAS G12R-GppNHP disruption HTRF assay (Biological Example 1)). Settings: KRAS G12R, GppNHp-loaded; class symbols.
T4 construct: Avi-KRAS G12R (1-169)
T4 sequence (P01116 1-169 isoform P01116-2 G12R): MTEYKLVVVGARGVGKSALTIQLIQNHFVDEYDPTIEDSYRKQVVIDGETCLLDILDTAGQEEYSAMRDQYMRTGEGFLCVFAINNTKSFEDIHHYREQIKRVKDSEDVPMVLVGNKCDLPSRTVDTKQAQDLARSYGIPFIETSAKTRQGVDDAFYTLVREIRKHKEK
Format: binding
In short: as §1
For `CCN(c1nc(OC[C@@]23CCCN2C[C@H](F)C3)nc2c(F)c(-c3ccc(F)c4sc(N)c(C#N)c34)c(C(F)(F)F)cc12)C1CCN(C(=O)N2C3COCC2C3)C1` (stereo partly drawn) [Compound 652], the IC50 was less than 100 nM.
Molecule `CCN(c1nc(OC[C@@]23CCCN2C[C@H](F)C3)nc2c(F)c(-c3ccc(F)c4sc(N)c(C#N)c34)c(C(F)(F)F)cc12)[C@H]1CCN(C(=O)N2CC3C(C2)C3(F)F)C1` (stereo partly drawn) [Compound 657] has an IC50 of less than 100 nM.
`CC#CC(=O)N1CC[C@@H](N(C)c2nc(OC[C@@]34CCCN3C[C@H](F)C4)nc3c(F)c(-c4ccc(F)c5sc(N)c(C#N)c45)c(C(F)(F)F)cc23)[C@H]1C` [Compound 668] showed an IC50 of 100 to 1000 nM.
With `C=C(F)C(=O)N1CC[C@@H](N(C)c2nc(OC[C@@]34CCCN3C[C@H](F)C4)nc3c(F)c(-c4ccc(F)c5sc(N)c(C#N)c45)c(C(F)(F)F)cc23)[C@H]1C` [Compound 669] the IC50 was 100 to 1000 nM.
Molecule `C/C=C/C(=O)N1CC[C@@H](N(C)c2nc(OC[C@@]34CCCN3C[C@H](F)C4)nc3c(F)c(-c4ccc(F)c5sc(N)c(C#N)c45)c(C(F)(F)F)cc23)[C@H]1C` [Compound 670] has an IC50 of 100 to 1000 nM.
